The target of one data set is T1, 11βHSD1 in the eyes (Homo sapiens, UniProt P28845).
T1 construct: host or cells: eyes of healthy volunteers (in vivo)
Particulars: healthy volunteers, after treating for seven days; cited from earlier work.

Data set [1] has as its target T2, recombinant 11β-HSD1 protein (Homo sapiens, UniProt P28845).
T2 construct: made in house; host or cells: Saccharomyces cerevisiae
Put plainly: 11β-HSD1 SPA (Scintillation Proximity Assay) enzyme inhibition test, 384-well format. It is filed as biochemical. Particulars: 3H-cortisone and NADPH; cortisol formed measured by SPA; read-out: IC50 (concentration which inhibits 50% of the activity of 11β-HSD1). From the text:
The compounds according to the invention formed the subject of pharmacological tests which make it possible to determine their inhibiting effect on the 11β-HSD1 enzyme, which is an enzyme which is involved in the metabolism of lipids or the metabolism of glucose.
These tests consisted in measuring the in vitro inhibiting activity of the compounds of the invention by virtue of an SPA (Scintillation Proximity Assay) test in 384-well format. The recombinant 11β-HSD1 protein was produced in the yeast S. cerevisiae. The reaction was carried out by incubating the enzyme in the presence of ^3H-cortisone and of NADPH, in the absence or in the presence of an increasing concentration of inhibitor. SPA beads coupled to an antimouse antibody, which are preincubated with anticortisol antibody, made it possible to measure the amount of cortisol formed during the reaction.
The inhibiting activity with regard to the enzyme 11β-HSD1 is given by the concentration which inhibits 50% of the activity of 11β-HSD1 (IC50).
(In general: In a scintillation proximity assay essentially only radioactivity close to the scintillant gives light.)

The values below come from US7947834B2, “Substituted quinoxalines, their preparation and their therapeutical use as 11βHSD1 modulators” (Sanofi-Aventis, priority 2006, dated 2011).

Where a name gives a salt, the structure may show the parent alone.

T2 sequence (P28845 whole entry, species assumed): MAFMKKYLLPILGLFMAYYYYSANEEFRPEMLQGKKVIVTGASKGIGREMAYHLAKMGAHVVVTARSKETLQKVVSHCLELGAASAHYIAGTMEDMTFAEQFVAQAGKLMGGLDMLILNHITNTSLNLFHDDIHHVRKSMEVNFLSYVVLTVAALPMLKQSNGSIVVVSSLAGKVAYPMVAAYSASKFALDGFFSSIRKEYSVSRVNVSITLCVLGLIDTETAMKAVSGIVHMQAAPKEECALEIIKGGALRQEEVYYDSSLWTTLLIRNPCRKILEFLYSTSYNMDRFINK
T1 sequence (P28845 whole entry): as the sequence (P28845 whole entry, species assumed) above

For orientation: melting point means the temperature of the solid-liquid transition. `CS(=O)(=O)c1ccc(CN2CCN(C(=O)N3CCC(c4cn[nH]c4)C3)c3ccccc32)cc1` (centres unmarked) [compound 161, [4-(4-(Methanesulfonyl)benzyl)-3,4-dihydro-2H-quinoxalin-1-yl][3-(1H-pyrazol-4-yl)pyrrolidin-1-yl]methanone] displayed a melting point of 239 °C.
The molecule `O=C(N1CCC2(C=Cc3ccccc32)CC1)N1CCCc2ccccc21` [compound 15, 1′-(3,4-Dihydroquinolin-1(2H)-ylcarbonyl)spiro[indene-1,4′-piperidine]] came in with a melting point of 130 to 133 °C.
With `CC1(C)[C@@H](OC(=O)CCC(=O)O)CC[C@]2(C)[C@H]3C(=O)C=C4[C@@H]5C[C@@](C)(C(=O)O)CC[C@]5(C)CC[C@@]4(C)[C@]3(C)CC[C@@H]12` [carbenoxolone], the “reduction of the intraocular pressure (IOP)” value on 11βHSD1 in the eyes is 18%.
Regarding `CN(C)C(=O)N1CCN(C(=O)N2CCC(c3cccnc3)C2)c2ccccc21.Cl` (centres unmarked), the melting point came out at 181 °C.
As to `NC(=O)c1ccc(N2CCN(C(=O)N3CCC(c4cn[nH]c4)C3)c3ccccc32)cn1` (centres unmarked) [compound 188], the melting point is 90 °C. The IC50 in data set [1] was determined as 130 nM.
`CCCCN1CCN(C(=O)N2CCC(c3cccnc3)C2)c2ccccc21.Cl` (centres unmarked) yielded a melting point of 191 °C.
Take `CCCN1CCN(C(=O)N2CCC(c3cccnc3)C2)c2ccccc21` (centres unmarked) [compound 101]: in data set [1], the IC50 amounted to 90 nM.
In turn, `N#Cc1cccc(CN2CCN(C(=O)N3CCC(c4cn[nH]c4)C3)c3ccccc32)c1` (centres unmarked) [compound 162] registered a melting point of 174 °C. For the same molecule, in data set [1], the IC50 was 57 nM.
Take `Cl.O=C(N1CCC(c2cccnc2)C1)N1CCOc2ccccc21` (centres unmarked): the melting point is 60 to 90 °C.
On to `O=C(NN1CCCCC1)c1ccc(N2CCN(C(=O)N3CCC(c4cn[nH]c4)C3)c3ccccc32)cc1` (centres unmarked) [compound 172, N-(Piperidin-1-yl)-4-{4-[3-(1H-pyrazol-4-yl)pyrrolidine-1-carbonyl]-3,4-dihydro-2H-quinoxalin-1-yl}benzamide], for which the melting point is 251 °C.
`COc1cc(N2CCN(C(=O)N3CCC(c4cn[nH]c4)C3)c3ccccc32)ccc1C(=O)NC1CC1` (centres unmarked) [compound 178, N-Cyclopropyl-2-methoxy-4-{4-[3-(1H-pyrazol-4-yl)pyrrolidine-1-carbonyl]-3,4-dihydro-2H-quinoxalin-1-yl}benzamide]: the melting point stood at 100 °C.
The same measure, in the same setting: as for `CC(=O)N1CCN(C(=O)N2CCC(c3cccnc3)C2)c2ccccc21.Cl` (centres unmarked), the figure is 201 °C.
`Cl.O=C(N1CCC(c2cccnc2)C1)N1CCOc2ccc(CO)cc21` (centres unmarked) returned a melting point of 273 °C.
As for `COc1cc(N2CCN(C(=O)N3CCC(c4cn[nH]c4)C3)c3ccccc32)ccc1C(=O)NC1CC1` (centres unmarked) [compound 78], in data set [1], the IC50 worked out at 39 nM.
For `Cl.O=C(N1CCC(c2ccncc2)CC1)N1CCCc2ccccc21` [compound 4, 1-[(4-(Pyridin-4-yl)piperidin-1-yl)carbonyl]-1,2,3,4-tetrahydroquinoline Hydrochloride], the melting point is 198 °C. The IC50 in data set [1] is 115 nM.
With `N#CC1(c2ccccc2)CCN(C(=O)N2CCCc3ccccc32)CC1`, the melting point lay in the range of 53 to 59 °C.
The same measure, in the same setting: as for `O=C(N1CCC(c2nc(-c3c(Cl)cccc3Cl)no2)CC1)N1CCCc2ccccc21` [compound 25, 1-({4-[3-(2,6-Dichlorophenyl)-1,2,4-oxadiazol-5-yl]piperidin-1-yl}carbonyl)-1,2,3,4-tetrahydroquinoline], the figure is 63 to 68 °C.
With `O=C(N1CCC2(CCCc3ccccc32)CC1)N1CCCc2ccccc21` [compound 18], the melting point fell in the range of 52 to 65 °C. Also, the IC50 in data set [1] amounted to 43 nM.
Turning to `CCCN1CCN(C(=O)N2CCC(c3cccnc3)C2)c2ccccc21` (centres unmarked) (as salt: HCl) [compound 101], the melting point came out at 121 °C.
